Measured values as given in paper PMC12851022, “Targeting the Spliceosomal Protein USP39 Through Allosteric Ligands and PROTAC‐Induced Degradation” (Angewandte Chemie (International Ed. in English), 2025).

Target: T1, USP39-OFP (Homo sapiens, UniProt Q53GS9)
T1 construct: expressed in transfected cells; host or cells: HeLa
Experiment: In-cell fluorescence degradation assay in HeLa-USP39-OFP cells
Format: cell-based
Conditions: 50 nM, 16-h serum starvation, 24-h treatment
Description: To evaluate the degradation efficacy of USP39_PROTACs, we adapted our recently developed cellular fluorescence assay in HeLa cells transiently overexpressing USP39‐OFP (HeLa‐USP39‐OFP).^[ [32] ^] Various experimental conditions were tested, including different initial seeding densities, the presence or absence of serum starvation, varying treatment durations, and compound concentration gradients (Figure 4a). Among these, a 16‐h serum starvation followed by a 24‐h treatment provided the most consistent and reproducible degradation of USP39 and was used for further experiments. Under these experimental conditions, a series of CRBN‐ and VHL‐based PROTACs were evaluated in an in‐cell fluorescence assay at a concentration of 50 nM to assess their ability to induce target protein degradation (Figure 4b, Table SI4). […]
Figure 4 Effective and selective degradation of USP39 in cells by USP39‐PROTACs. a) Optimization of cellular degradation assay in HeLa cells transiently overexpressing USP39‑OFP (HeLa‐USP39‐OFP). […] Western blot comparing USP39 levels in VHL WT and VHL KO HeLa cells treated with USP39_PROTAC_V1. k) Fluorescence assay in HEK293T cells co‐expressing USP39‑OFP and either VHL_WT‑EGFP or VHL_m (Δ91–121). […]

T1 sequence (Q53GS9 whole entry): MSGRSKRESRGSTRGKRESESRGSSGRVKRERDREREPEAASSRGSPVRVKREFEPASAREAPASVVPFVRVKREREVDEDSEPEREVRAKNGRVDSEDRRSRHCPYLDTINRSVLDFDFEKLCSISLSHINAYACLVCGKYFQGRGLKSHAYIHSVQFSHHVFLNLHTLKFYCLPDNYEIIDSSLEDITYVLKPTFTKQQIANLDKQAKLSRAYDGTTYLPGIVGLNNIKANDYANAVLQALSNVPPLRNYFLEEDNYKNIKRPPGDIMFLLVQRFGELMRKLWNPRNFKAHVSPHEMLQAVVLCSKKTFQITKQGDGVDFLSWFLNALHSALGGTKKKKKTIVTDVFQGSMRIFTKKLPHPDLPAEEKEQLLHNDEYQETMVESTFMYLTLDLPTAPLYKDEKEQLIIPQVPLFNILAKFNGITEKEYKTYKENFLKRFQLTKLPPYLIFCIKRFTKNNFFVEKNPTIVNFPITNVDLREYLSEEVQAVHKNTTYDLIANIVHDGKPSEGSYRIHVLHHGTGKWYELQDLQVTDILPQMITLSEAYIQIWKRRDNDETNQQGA
T1 sequence (P40337 whole entry, further chain): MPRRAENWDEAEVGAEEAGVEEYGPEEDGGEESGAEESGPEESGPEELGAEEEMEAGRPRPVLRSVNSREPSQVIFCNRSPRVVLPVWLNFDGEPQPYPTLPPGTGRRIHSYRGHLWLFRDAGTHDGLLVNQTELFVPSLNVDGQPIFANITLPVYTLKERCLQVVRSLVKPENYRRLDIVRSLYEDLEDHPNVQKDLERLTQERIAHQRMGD
T1 sequence (Q15370 whole entry partner): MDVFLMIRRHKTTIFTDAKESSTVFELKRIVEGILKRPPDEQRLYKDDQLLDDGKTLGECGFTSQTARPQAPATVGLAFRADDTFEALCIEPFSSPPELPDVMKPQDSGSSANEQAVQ
T1 sequence (Q15369 whole entry partner): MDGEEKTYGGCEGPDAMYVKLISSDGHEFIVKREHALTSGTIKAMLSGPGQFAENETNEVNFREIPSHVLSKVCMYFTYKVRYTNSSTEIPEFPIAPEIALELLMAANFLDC

USP39 degradation in in-cell fluorescence assay: robust degradation activity
SMILES: Cc1ncsc1-c1ccc(CNC(=O)C2CC(O)CN2C(=O)C(NC(=O)CCOCCOCCOCCNC(=O)c2csc(Nc3ccc(Cl)cc3)n2)C(C)(C)C)cc1 (stereo not shown) [USP39_PROTAC_V1]
